Here are results for twelve molecules from ChEMBL document CHEMBL1201862, “PubChem BioAssay data set” (2004).

Assay in all cases: inhibition of tumour cell growth, NCI panel, 48 h
The subject of assay [1] is SF-295.
For assay [2], the system named is SW-620.
The subject of assay [3] is CCRF-CEM.
Assay [4] deals with CAKI-1.
Assay [5] concerns ACHN.
The subject of assay [6] is HT-29.
In assay [7] the test system is M14.
Assay [8] has as its system NCI-H522.
Assay [9] relates to NCI-H460.
The test system of assay [10] is 786-0.
In assay [11] the test system is IGROV-1.
Assay [12] has as its system OVCAR-4.
In assay [13] the test system is SK-OV-3.
For assay [14], the system named is UACC-62.
In assay [15] the test system is A549.
For assay [16], the system named is Malme-3M.
The subject of assay [17] is KM12.
Assay [18] has as its system SF-268.

Several values for one entry are separate records, joined by “and”; a condition that tells them apart may be missing. Equal values may be shown once.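 Five concentrations, 48 hours, 96-well plates. GI50 = concentration required for 50% inhibition of growth.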 Activity calls are given as the source filed them. Cut-off read from the data, not from the text of the source: active = GI50 up to about 1.1 µM and inactive = higher.

As for `O=c1oc2ccccc2[n+]([O-])c1-c1ccccc1`, the GI50 in [1], in [2], in [3], in [4], in assay [5] and in assay [6] was > 100 µM (inactive) each time. The GI50 in assay [7] was > 100 µM (inactive); in assay [8], 36.6 µM (inactive); in [9] it was > 100 µM (inactive); in [10] it was > 100 µM (inactive); in assay [11] it was > 100 µM (inactive); in [12], > 100 µM (inactive). In addition, the GI50 in [13], in assay [14], in [15], in assay [16], in assay [17] and in assay [18] was > 100 µM (inactive) throughout.
Consider `Cc1cc(C)c(C(=O)C(C)C(c2ccccc2)c2ccc(Cl)cc2)c(C)c1` (centres undefined), for which the GI50 is > 100 µM (inactive) in assay [1]; > 100 µM (inactive) in assay [2]; 46.3 µM (inactive) and 67.5 µM (inactive) in assay [3]; > 100 µM (inactive) in [4]; > 100 µM (inactive) and 91.8 µM (inactive) in [5]; 34.4 µM (inactive) and 43.5 µM (inactive) in [6]. Besides, the GI50 in [7] was 82.8 µM (inactive) and 75.7 µM (inactive); in assay [9], > 100 µM (inactive); in assay [10] it was > 100 µM (inactive); in assay [11], > 100 µM (inactive); in assay [12], 49.4 µM (inactive) and 67.6 µM (inactive); in assay [13], > 100 µM (inactive). Also, the GI50 is > 100 µM (inactive) in assay [14]; > 100 µM (inactive) in assay [15]; > 100 µM (inactive) and 96.4 µM (inactive) in [17]; > 100 µM (inactive) in assay [18].
Consider `CCN(CC)CCC(=O)N1CCc2c([nH]c3ccccc23)C1c1cccnc1` (centres undefined), for which the GI50 in [1], in assay [2], in assay [3], in assay [4], in assay [5] and in assay [6] was > 100 µM (inactive) in each case. Further, the GI50 in assay [7], in assay [8], in assay [9], in assay [10], in assay [11] and in assay [12] was > 100 µM (inactive) each time. For the same molecule, the GI50 in assay [13], in [14], in assay [15], in [17] and in assay [18] was > 100 µM (inactive) each time.
Regarding `COc1ccc(C/C(=N/O)C(=O)NCCc2cc(Br)c(OCCCN(C)C)c(Br)c2)cc1Br` [APLYSAMINE 2], the GI50 is 18.8 µM (inactive) in assay [1]; 16.6 µM (inactive) in assay [2]; 25.6 µM (inactive) in assay [4]; 15.6 µM (inactive) in [5]; 5.92 µM (inactive) in assay [6]; 17.7 µM (inactive) in assay [7]. Besides, the GI50 in assay [8] was 16.4 µM (inactive); in assay [9], 17.3 µM (inactive); in assay [10], 20 µM (inactive); in assay [12] it was 17 µM (inactive); in assay [15] it was 20 µM (inactive); in [16], 27.6 µM (inactive). In addition, the values for the GI50 in [17] and in assay [18] were 16.6 µM (inactive) and 18.5 µM (inactive), respectively.
Regarding `C=C1C(=O)OC2C1C(OC(=O)/C(=C/C)COC(C)=O)CC1(CO1)C1C(OC(=O)/C(=C/C)CO)C=C(C)C21` (centres undefined), the GI50 in assay [1] was 5.16 µM (inactive); in assay [2], 0.736 µM (active); in assay [3], 0.333 µM (active); in [4], 0.502 µM (active); in assay [5], 1.9 µM (inactive); in assay [6] it was 1.64 µM (inactive). In addition, the GI50 was 1.67 µM (inactive) in assay [7]; 6.98 µM (inactive) in [9]; 1.66 µM (inactive) in assay [10]; 1.89 µM (inactive) in assay [11]; 2.86 µM (inactive) in assay [12]; 17.1 µM (inactive) in assay [13]. For the same molecule, the GI50 in assay [14] was 1.59 µM (inactive); in assay [15] it was 6.9 µM (inactive); in assay [16], 1.78 µM (inactive); in [17] it was 3.94 µM (inactive); in [18], 2.75 µM (inactive).
On to `C(=C\c1c2oc(-c3ccccc3)cc(-c3ccccc3)c-2c2ccccc12)/C=C1\c2ccccc2-c2c(-c3ccccc3)cc(-c3ccccc3)[o+]c21.[O-][Cl+3]([O-])([O-])[O-]`, for which the GI50 in [1] is > 100 µM (inactive); in [2], > 100 µM (inactive); in assay [3], > 100 µM (inactive); in assay [5] it was > 100 µM (inactive); in assay [6], > 100 µM (inactive); in assay [7] it was 37 µM (inactive). Further, the GI50 in assay [8], in assay [9], in [10], in assay [11], in [12] and in [13] was > 100 µM (inactive) throughout. In addition, the GI50 in [14], in [15], in assay [16] and in assay [18] was > 100 µM (inactive) throughout.
With `Cc1cc(C)c([O-])c(-[n+]2c(-c3ccccc3)cc(-c3ccccc3)cc2-c2ccccc2)c1`, the GI50 in assay [1] is 4.98 µM (inactive); in assay [2], 4.1 µM (inactive); in assay [3], 1.73 µM (inactive); in assay [4], 9.27 µM (inactive); in [5], 5.13 µM (inactive); in [6] it was 2.98 µM (inactive). Moreover, the GI50 in [7] is 5.57 µM (inactive); in assay [9], 4.48 µM (inactive); in assay [10], 6.78 µM (inactive); in [11], 4.04 µM (inactive); in assay [12], 4.28 µM (inactive); in assay [13] it was 13.7 µM (inactive). Further, the GI50 in assay [14] is 3.34 µM (inactive); in assay [15] it was 12.6 µM (inactive); in assay [16] it was 4.28 µM (inactive); in [17], 3.21 µM (inactive); in assay [18], 7.82 µM (inactive).
For the molecule `CC(C)C(=O)/C=C/c1ccc(Cl)c(Cl)c1`, the GI50 in assay [1] is 13.4 µM (inactive); in assay [2] it was 15.6 µM (inactive); in assay [3], 4.53 µM (inactive); in assay [5], 18.5 µM (inactive); in [6], 19.7 µM (inactive); in assay [7], 17.5 µM (inactive). In addition, the GI50 in [8] is 13.4 µM (inactive); in assay [9], 22.2 µM (inactive); in assay [10] it was 14.5 µM (inactive); in assay [11] it was 20 µM (inactive); in [12], 34.9 µM (inactive); in assay [13], 28.6 µM (inactive). In addition, the GI50 in assay [14] was 17.3 µM (inactive); in assay [15], 21 µM (inactive); in assay [17], 14.8 µM (inactive); in [18], 19.2 µM (inactive).
`Cc1c2cc[n+](C)cc2c(C)c2c1[nH]c1ccc(O)c(OCC(F)(F)F)c12`: the GI50 in assay [1] was 0.839 µM (active); in [2], 6.67 µM (inactive); in assay [3] it was 4.97 µM (inactive); in assay [4], 12.8 µM (inactive); in assay [6] it was 9.82 µM (inactive); in assay [7] it was 6.22 µM (inactive). Besides, the GI50 is 1.01 µM (active) in assay [8]; 1.51 µM (inactive) in assay [9]; 1.46 µM (inactive) in assay [10]; 5.86 µM (inactive) in assay [11]; 1.26 µM (inactive) in assay [12]; 6.75 µM (inactive) in assay [13]. In addition, the GI50 is 5.66 µM (inactive) in assay [14], 1.87 µM (inactive) in assay [15], 1.63 µM (inactive) in assay [16] and 0.164 µM (active) in assay [18].
As for `CC(SC(=S)N1CCOCC1)c1cc2oc(=O)n(C)c2cc1Cl` (centres undefined), the GI50 in [1] is > 100 µM (inactive); in assay [2], > 10 µM (inactive); in [3], 19.8 µM (inactive); in assay [4] it was > 100 µM (inactive); in assay [5] it was > 100 µM (inactive); in assay [6], > 100 µM (inactive). The GI50 in assay [7] was > 100 µM (inactive); in [9], > 100 µM (inactive); in assay [10], > 100 µM (inactive); in assay [11], > 10 µM (inactive); in [12] it was > 100 µM (inactive); in assay [13], > 100 µM (inactive). For the same molecule, the GI50 in [14] is > 100 µM (inactive); in assay [15] it was 42.2 µM (inactive); in assay [16], > 100 µM (inactive); in assay [17] it was > 100 µM (inactive); in assay [18], > 100 µM (inactive).
For `CN(C)C=C1C(=O)N(C)C(=O)N(C)C1=O`, the GI50 in assay [1], in assay [2], in [3], in [4], in assay [5] and in [6] was > 100 µM (inactive) each time. Further, the GI50 in assay [7], in assay [9], in assay [10], in [12], in [14] and in assay [15] was > 100 µM (inactive) in each case. Also, the GI50 in assay [16] and in assay [17] was > 100 µM (inactive) throughout.
Turning to `CCOC(=O)c1ccc(/N=C/c2ccc(N(CCC#N)S(=O)(=O)c3ccccc3)cc2C)cc1`, the GI50 in [1] was 26.5 µM (inactive); in assay [2], 76.6 µM (inactive); in assay [3] it was 36.6 µM (inactive); in [4], 39.4 µM (inactive); in assay [6], 37.2 µM (inactive); in assay [7], 25.4 µM (inactive). Also, the GI50 was 72.1 µM (inactive) in assay [8]; > 100 µM (inactive) in [10]; > 100 µM (inactive) in [11]; 39.4 µM (inactive) in [12]; 76.9 µM (inactive) in assay [13]; 19.4 µM (inactive) in [14]. Moreover, the GI50 in assay [15] is 47.1 µM (inactive); in assay [16] it was 53.8 µM (inactive); in assay [17] it was 18.7 µM (inactive); in [18], 26.1 µM (inactive).
